According to patent US7438931B2, “Methods and compositions for the treatment of angiogenic diseases” (The Regents of The University of Michigan, priority 1998, dated 2008):

Legend:
[1] = Storage stability of TM (bulk under argon, capsules); assay type: physicochemical; details: room temperature
From the text: The bulk drug is therefore stored under argon.
TM was purchased in bulk lots suitable for human administration (Aldrich Chemical Company, Milwaukee, Wis.). […] At the time a prescription was written, the appropriate dose of TM was placed in gelatin capsules. Previously, it was shown by the inventors that TM dispensed in such capsules retained at least 90% of its potency for eight weeks (Brewer et al., 1991a). Thus, TM was dispensed to each patient in eight-week installments throughout the trial.

copper toxicity = details: late stages of liver disease; cited from earlier work
[2] = for eight weeks; cited from earlier work
Serum ceruloplasmin (Cp) = assay: Phase I trial: serum ceruloplasmin as surrogate marker of total-body copper; assay type: in vivo, human
Experimental: Three dose regimens were evaluated. All dose levels consisted of TM 20 mg given 3 times daily with meals plus an escalating (levels I, II, and III) in-between meal dosing, given 3 times daily, for a total of 6 doses per day. Loading dose levels I, II, and III provided TM at 10 mg, 15 mg, and 20 mg, 3 times daily between meals, respectively, in addition to the 3 doses of 20 mg each, given with meals, at all dose levels.
Baseline Cp was taken as the nearest Cp measurement to day 1 of treatment, including day 1, since the blood was drawn pre-TM, for all patients. The target Cp reduction was defined as 20% of baseline Cp. Due to Cp assay variability of approximately 2%, a change of Cp to 22% of baseline was considered as achieving the desired reduction of copper. In addition, if the absolute Cp was less than 5 mg/dl, then the patient was considered as having reached the target Cp. No patient reached the target due to an absolute Cp of less that 5 mg/dl, without also being at least 78% reduced from baseline. After reaching the target copper deficient state, TM doses were individually tailored to maintain Cp within a target window of 70-90% reduction from baseline.
A method was required to monitor copper status easily and reliably, so that TM dose could be adjusted appropriately during this trial. With TM administration, serum copper is not a useful measure of total-body copper, because the TM-copper-albumin complex is not rapidly cleared, and the total serum copper (including the fraction bound to the TM-protein complex) actually increases during TM therapy (Brewer et al., 1991a; 1994b; 1996). The serum ceruloplasmin level obtained weekly was used as a surrogate measure of total-body copper status. The serum Cp level is controlled by Cp synthesis by the liver, which, in turn, is determined by copper availability to the liver (Linder et al., 1979). […] The serum Cp level is in the range of 20-35 mg/dl and 30-65 mg/dl for normal controls and cancer patients, respectively. The objective as this trial was to reduce Cp to or below 20% of baseline, and to maintain this level, within a window spanned by (20±10) % of the baseline Cp, with typical Cp values in the range of 7-12 mg/dl. Since there appears to be no untoward clinical effects from this degree of copper reduction, this level of copper deficiency has been termed “chemical copper deficiency”. The first indication of true clinical copper deficiency is a reduction in blood cell counts, primarily anemia, as copper is required for heme synthesis as well as cellular proliferation (Brewer et al., 1996). Thus, the copper deficiency objective of this trial was to reduce the Cp to 20% of baseline or below, without decreasing the patient's hematocrit or WBC to below 80% of the baseline value at entry.
(§1) Complete blood counts, liver and renal function tests, urinalyses, and Cp level (by the oxidase method) were performed weekly for 16 weeks, then bi-weekly. Physical examinations and evaluations of toxicity were carried out every 2 weeks for 8 weeks, then every 4 weeks for the duration of therapy. Toxicity was evaluated using the National Cancer Institute Common Toxicity Criteria (Table 3). As TM is not a cytotoxic drug at the doses employed, and it has already been given to humans without any other toxicities than the ones described in detail above, the majority of the toxicities listed in Table 3, should they arise, are not expected to be due to TM. Nevertheless, therapy will be discontinued and the patient removed from the study if grade 3 or higher toxicities of any type are observed, whatever the probable etiology. For grade 2 toxicities, an attempt will be made to establish their etiology.

Phase I trial: toxicity = assay type: in vivo, human
From the text: Six patients were to be enrolled at each dose level. After 4 patients were enrolled at level I, if one patient experienced dose-limiting toxicity (DLT) (defined as Hct<80% of baseline), 2 more patients were enrolled at level I. If no DLT was observed, patients were enrolled at the next dose level. Treatment was allowed to continue beyond induction of target copper deficiency, if the patients experienced a partial or complete clinical response or achieved clinical stable disease by the following definitions. Complete response is defined as the disappearance of all clinical and laboratory signs and symptoms of active disease. Partial response is defined as a 50% or greater reduction in the size of measurable lesions defined by the sum of the products of the longest perpendicular diameters of the lesions, with no new lesions or lesions increasing in size. Minor response is defined as a 25-49% reduction in the sum of the products of the longest perpendicular diameters of one or more measurable lesions, no increase in size of any lesions and no new lesions; stable disease is any change in tumor measurements not represented by the criteria for response or progressive disease, which is defined as an increase of 25% or more in the sum of the products of the longest perpendicular diameters of any measurable indicator lesions, compared to the smallest previous measurement or appearance of a new lesion. Because copper deficiency is not a cytotoxic treatment modality, the patients who provide information about the efficacy of TM for long-term therapy, in this population of patients with advanced cancer, are primarily those who remained within the target Cp window of (20±10)% of baseline for over 90 days, without disease progression
as §1, with “As TM is not a cytotoxic drug at the doses employed, and it has already been given to humans without any other toxicities than the ones described in detail above, the majority of the toxicities listed in Table 3, should they arise, are not expected to be due to TM.” left out

[3] = initial TM doses 90 to 120 mg per day, six times per day regimen

tetrathiomolybdate [TM]
stability in capsules [1]: stable in capsules for several months at room temperature | efficacy against copper toxicity (copper toxicity): very effective in treating these animals in the late stages of their liver disease | potency retained in gelatin capsules [2]: at least 90% | No. of Patients: Achieved Target Cp (Serum ceruloplasmin (Cp); 18 patients): 14 | No. of Patients: Did Not Achieve Target Cp (Serum ceruloplasmin (Cp); 18 patients): 4 | time to Cp 50% of baseline, mean (Serum ceruloplasmin (Cp); 90, 105 and 120 mg/day): 30 days | time to Cp 50% of baseline, median (Serum ceruloplasmin (Cp); 90, 105 and 120 mg/day): 28 days | time for further reduction to Cp levels of 5-10 mg/dl (Serum ceruloplasmin (Cp); after reduction to 50% of baseline): 20 to 30 days | effect of increasing in-between meals dose on Cp decrease (Serum ceruloplasmin (Cp); from 10 mg 3× daily to 15 mg or 20 mg 3× daily): no significant effect on the rate of decrease of the Cp level | No. of Patients: Target Cp <90 days (Serum ceruloplasmin (Cp); in vivo): 8/14 | No. of Patients: Target Cp >90 days (Serum ceruloplasmin (Cp); in vivo): 6/14 | patients maintained at the target Cp for more than 90 days (Serum ceruloplasmin (Cp); in vivo): 39 % of those treated | time to rapid rise in Cp when TM was discontinued (Serum ceruloplasmin (Cp); in vivo): ≤ 48 h | patients with serum Cp lowered to 20% of baseline (Serum ceruloplasmin (Cp); [3]): 14 out of 18 | patients with serum Cp lowered to 50% of baseline (Serum ceruloplasmin (Cp); [3]): 17 out of 18 | reaching the target Cp (Serum ceruloplasmin (Cp); level III dose 120 mg/day): effective in reaching the target Cp, without added toxicity | toxicities (Phase I trial: toxicity; Cp levels at or above 20% of baseline): no cardiac, pulmonary, GI, renal, hepatic, hematologic, infectious, skin, mucosal, or neurologic toxicities observed | patients with mild (greater than 80% of baseline Hct) reversible anemia (Phase I trial: toxicity; Cp levels between 10-20% of baseline): 4 patients | toxicity (Phase I trial: toxicity; Cp lowered to 10-20% of baseline for up to 17 months of treatment): remarkably non-toxic | toxicity (Phase I trial: toxicity; Cp reduced to 15-20% of baseline): non-toxic | only drug-related toxicity observed (Phase I trial: toxicity; in vivo): mild anemia in one patient | toxicities on long-term maintenance (Phase I trial: toxicity; mild clinical copper deficiency over 8-15 months): No additional toxicities of any type were observed | time for hematocrit to recover after stopping the drug (Phase I trial: toxicity; one patient, without transfusion): 5 to 7 days | other adverse effect (Phase I trial: toxicity; several patients, within 30 minutes of TM ingestion): transient, occasional sulphur-smelling burping
